Source: patent publication US5348941A, “Stabilizers for fibroblast growth factors” (Merck & Co., Inc., priority 1992, dated 1994)
Where two headings read alike, the source gives them in different places.

Experiments:
acidic FGF (aFGF) = acidic FGF (aFGF) (Homo sapiens, UniProt P05230); assay: biochemical; conditions: for stabilization of aFGF against heat-induced aggregation: 0.5X and 10X ligand, FIGS. 6-8; for Approx. Molar Ratio (ligand to aFGF at 50% inhibition of aggregation): Table 1
Description: Stabilization of aFGF can be determined by several independent methods including turbidity measurements, spectroscopic techniques, maintenance of protein mass, mitogenic activity and copper catalyzed oxidation. Since acidic fibroblast growth factor is unstable at physiological temperatures (undergoing large structural changes, including aggregation, which results in a loss of mitogenic and wound healing activity), human aFGF stability can be monitored by evaluating the turbidity of the pharmaceutical composition by following the kinetics of temperature induced aggregation of unfolded protein.
The kinetics of protein aggregation (stabilization) are monitored by the degree of light scattering at about OD350 nm using a Perkin Elmer Lambda 6 UV-visible spectrophotometer equipped with a six-cuvette holder. Temperature is controlled by circulating a water/ethylene glycol solution through the cell holder. About 0.9 ml of a PBS solution (6 mM sodium phosphate, 120 mM NaCl, pH 7.2) was placed into a cuvette and incubated at the appropriate temperature within the spectrophotometer. Once equilibrated, 100 μl of a 1 mg/ml aFGF solution containing the appropriate amount of ligand (stabilizer) is added to the cuvette and mixed manually by inversion. The change in optical density at 350 nm over time is continuously monitored. A dead time of 30s was present due to the mixing of the six samples in each experiment.
To examine the interactions between aFGF and heparin, a spectrophotometric turbidity assay was developed. This technique monitors the structural stability of aFGF by following the kinetics of temperature induced aggregation of unfolded protein by measurement of the degree of light scattering (turbidity) at 350 nm. The kinetics of protein aggregation were monitored by the degree of light scattering at 350 nm using a Perkin Elmer Lambda 6 UV-visible spectrophotometer equipped with a six-cuvette holder. Temperature was controlled by circulating a water/ethylene glycol solution through the cell holder. A PBS solution, 0.9 ml, (6 mM phosphate, 120 mM NaCl pH 7.2) was placed into a cuvette and incubated at the appropriate temperature within the spectrophotometer. Once equilibrated, 100 μl of a 1 mg/ml aFGF solution containing the appropriate amount of ligand was added to the cuvette and mixed manually by inversion. The change in optical density at 350 nm over time was continuously monitored. A dead time of 30s was present due to the mixing of the six samples in each experiment.
Samples contained 100 μg/ml aFGF in a PBS buffer at pH 7.2 with the indicated ratio of heparin to aFGF (wt:wt).
Samples contained 100 μg/ml protein in a PBS buffer, pH 7.2 with (a) no heparin, (b) 1.5 μg/ml, (c) 3 μg/ml, (d) 5 μg/ml, (e) 10 μg/ml and (f) 50 μg/ml heparin. Only representative data points are shown for clarity. […] Using the initial linear portion of the slope of turbidity vs. time plots as a measure of the rate of aggregation, the effect of polyanion concentration can be quantitatively characterized. The Y-axis represents the maximum rate of turbidity formation (ΔOD350 nm/min) normalized to sample (a) containing no heparin. The curve is drawn through data points for clarity only. The IC50 is the concentration of ligand at which the rate of aggregation is 50% of the control sample.

aFGF = biological target: T1, aFGF (Homo sapiens, UniProt P05230); assay: Thermal denaturation (Tm) of aFGF by circular dichroism; type: biochemical; conditions: for Tm of aFGF, circular dichroism: 3X ligand by weight
T1 construct: The recombinant derived, 140 amino add form is the preferred form of aFGF; N-terminal methionine (MetHaFGF); made in house; host or cells: microbial cells (preferred embodiment)
Description: Circular Dichroism (CD) spectra are measured with an AVIV 62 DS spectropolarimeter. Samples of aFGF at about 100 μg/ml in a PBS buffer (6 mM sodium phosphate, 120 mM NaCl, pH 7.2) containing various ligands are placed into 1 mm pathlength cells and the cell temperature is controlled by circulating a water/ethylene glycol mixture through the cell holder. Thermal denaturation is carded out under computer control by increasing the temperature of the water bath in 2° C. increments, followed by a two-minute equilibration period at each temperature to allow the sample to reach thermal equilibrium. Reproducibility of the midpoint of these temperature melting curves (Tm) is ±2° C.
The maximum Tm values induced by 12 different ligands as determined by circular dichroism measurements at 228 nm are summarized in the first column of Table II. All of these ligands stabilize aFGF by 15°-25° C. in a manner similar to that originally observed with heparin. […] Furthermore, sulfate unions are found near analogous residues in the crystal structure of basic FGF, Eriksson et al., Proc. Natl. Acad. Sd. USA 88:3441-3445 (1991); Zhang et al., Proc. Natl. Acad. Sci. USA 88:3446-3450 (1991). Consequently, it seemed important to examine the ability of these ligands to stabilize aFGF during thermal denaturation as monitored by both fluorescence and circular dichroism. The Tm value of aFGF increased from 27° C. to 43° C. (fluorescence)and 45° C. to 51° C. (CD) when a 100 molar excess (3X by weight) of (IrCl6)^-3 was present. Similarly, sulfate union (120 mM) produced a species that was even more dramatically stabilized, melting at 57° C. (CD).
^(a) Thermal melting temperatures were measured by circular dichroism
Samples contained […] aFGF in PBS buffer pH 7.2 with excess ligand
(1-3× by weight except for 120 mM sodium sulfate and 10 mM

[1] = 40° C., 100 μg/ml aFGF, PBS pH 7.2
[2] = 40° C., 100 μg/ml aFGF, PBS pH 7.2, read-out: IC50: concentration of ligand at which the rate of heat-induced aggregation of aFGF is 50% of the sample without ligand (converted)

Sequence of acidic FGF (aFGF) (P05230 16-155 limits assumed): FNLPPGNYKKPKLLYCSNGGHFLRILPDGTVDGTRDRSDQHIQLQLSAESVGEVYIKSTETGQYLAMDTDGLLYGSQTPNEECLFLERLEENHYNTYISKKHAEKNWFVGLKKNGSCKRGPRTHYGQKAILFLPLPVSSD
T1 sequence (P05230 16-155 limits assumed): as above

Compound | stabilization of aFGF against heat-induced aggregation (acidic FGF (aFGF); 40° C.) | IC50 (acidic FGF (aFGF); [2]) [µM] | Approx. Molar Ratio (ligand to aFGF at 50% inhibition of aggregation) (acidic FGF (aFGF); 40° C.) | other results
Fucoidin | dramatically stabilize aFGF from heat-induced aggregation | – | – | IC50: concentration of ligand at which the rate of heat-induced aggregation of aFGF is 50% of the sample without ligand (acidic FGF (aFGF); [1]): 6 mg/L
Chondroitin Sulfate B | – | – | – | IC50: concentration of ligand at which the rate of heat-induced aggregation of aFGF is 50% of the sample without ligand (acidic FGF (aFGF); [1]): 50 mg/L; effect on rate and extent of aggregation of aFGF (acidic FGF (aFGF); 40° C., 0.5X ligand by weight): only a slight effect; effect on rate and extent of aggregation of aFGF (acidic FGF (aFGF); 40° C., 10X ligand by weight): significantly slows down the rate and extent of aggregation
polyvinyl sulfate | much less effective | – | – | –
chondroitin sulfate A | – | – | – | effect on rate and extent of aggregation of aFGF (acidic FGF (aFGF); 40° C., 0.5X ligand by weight): only a slight effect; effect on rate and extent of aggregation of aFGF (acidic FGF (aFGF); 40° C., 10X ligand by weight): significantly slows down the rate and extent of aggregation
sulodexide [reference compound] | dramatically stabilize aFGF from heat-induced aggregation | – | – | –
Nc1ncnc2nc[nH]c12.O=S(=O)(O)O [adenine sulfate] | actually alestabilize the growth factor | – | – | –
propyl-hydroxy-β- cyclodextrin | – | – | – | stabilization of aFGF, circular dichroism (aFGF; 3X by weight): did not stabilize addic FGF; Tm of aFGF, circular dichroism (aFGF): 47 °C
poly-glutamic acid | significantly enhance the thermal stability of aFGF | – | – | –
Nc1ncnc2c1ncn2[C@@H]1O[C@H](COP(=O)(O)OP(=O)(O)OP(=O)(O)OP(=O)(O)O)[C@@H](O)[C@H]1O [AT4P] | – | 10 | 1.6 | –
chondroitin sulfate C | – | – | – | effect on rate and extent of aggregation of aFGF (acidic FGF (aFGF); 40° C., 0.5X ligand by weight): only a slight effect; effect on rate and extent of aggregation of aFGF (acidic FGF (aFGF); 40° C., 10X ligand by weight): significantly slows down the rate and extent of aggregation
Nc1ncnc2c1ncn2[C@@H]1O[C@H](COP(=O)(O)OP(=O)(O)OP(=O)(O)OP(=O)(O)OP(=O)(O)OC[C@H]2O[C@@H](n3cnc4c(N)ncnc43)[C@H](O)[C@@H]2O)[C@@H](O)[C@H]1O [Ap5A] | – | 10 | 1.6 | –
keratan sulfate | much less effective | – | – | –
OC[C@H]1O[C@@H]2O[C@H]3[C@H](O)[C@@H](O)[C@@H](O[C@H]4[C@H](O)[C@@H](O)[C@@H](O[C@H]5[C@H](O)[C@@H](O)[C@@H](O[C@H]6[C@H](O)[C@@H](O)[C@@H](O[C@H]7[C@H](O)[C@@H](O)[C@@H](O[C@H]8[C@H](O)[C@@H](O)[C@@H](O[C@H]1[C@H](O)[C@H]2O)O[C@@H]8CO)O[C@@H]7CO)O[C@@H]6CO)O[C@@H]5CO)O[C@@H]4CO)O[C@@H]3CO [β-cyclodextrin (sulfur content zero), β-cyclodextrin] | – | – | – | Tm of aFGF, circular dichroism (aFGF): 46 °C
N.N.O=S(=O)(O)O [Ammonium sulfate, ammonium sulfate] | – | – | 80 | number of ligand molecules per aFGF (molar ratio) required for stabilization (acidic FGF (aFGF); 40° C.): about 80; IC50: concentration of ligand at which the rate of heat-induced aggregation of aFGF is 50% of the sample without ligand (acidic FGF (aFGF); [1]): 70 mg/L
Nc1ncnc2c1ncn2[C@@H]1O[C@H](COP(=O)(O)OP(=O)(O)OP(=O)(O)OC[C@H]2O[C@@H](n3cnc4c(N)ncnc43)[C@H](O)[C@@H]2O)[C@@H](O)[C@H]1O [Ap3A] | – | 250 | 42 | –
Nc1ncnc2c1ncn2[C@@H]1O[C@H](COP(=O)(O)OP(=O)(O)OP(=O)(O)OP(=O)(O)OC[C@H]2O[C@@H](n3cnc4c(N)ncnc43)[C@H](O)[C@@H]2O)[C@@H](O)[C@H]1O [Ap4A] | – | 30 | 5 | –
Nc1ncnc2c1ncn2[C@@H]1O[C@H](COP(=O)(O)OP(=O)(O)O)[C@@H](O)[C@H]1O [ADP] | – | 200 | 33 | –
polyaspartic acid [poly-Asp] | significantly enhance the thermal stability of aFGF | – | – | –
Nc1ncnc2c1ncn2[C@@H]1O[C@H](COP(=O)(O)OP(=O)(O)OP(=O)(O)OP(=O)(O)OP(=O)(O)OP(=O)(O)OC[C@H]2O[C@@H](n3cnc4c(N)ncnc43)[C@H](O)[C@@H]2O)[C@@H](O)[C@H]1O [Ap6A] | – | 3 | 0.5 | –
Nc1ncnc2c1ncn2[C@@H]1O[C@H](COP(=O)(O)OP(=O)(O)OP(=O)(O)O)[C@@H](O)[C@H]1O [ATP] | significantly enhance the thermal stability of aFGF | – | 5 | IC50 (acidic FGF (aFGF)): 30 µM
O=C(O)[C@H](O)[C@@H](O)[C@H](O[C@@H]1O[C@H](CO)[C@H](O)[C@H](O)[C@H]1O)[C@H](O)CO [Lactobionic acid] | – | 502 | 80 | number of ligand molecules per aFGF (molar ratio) required for stabilization (acidic FGF (aFGF); 40° C.): about 80
